Data set [1] in a line: Stability in mouse plasma assessed as parent compound remaining after 24 hrs. Format: ADME, cell-free. Particulars: read-out: Stability.
For a further data set, the species on record is Homo sapiens. As to the kind of experiment: Selectivity ratio of Ki for recombinant human matriptase (596 to 855 residues) expressed in Escherichia coli to Ki for recombinant human C-terminal V5-His-tagged matriptase-2 expressed in Drosophila S2 cells.
Data set [2] deals with T1, Transmembrane protease serine 6 (Homo sapiens, UniProt Q8IU80).
T1 sequence (Q8IU80 whole entry): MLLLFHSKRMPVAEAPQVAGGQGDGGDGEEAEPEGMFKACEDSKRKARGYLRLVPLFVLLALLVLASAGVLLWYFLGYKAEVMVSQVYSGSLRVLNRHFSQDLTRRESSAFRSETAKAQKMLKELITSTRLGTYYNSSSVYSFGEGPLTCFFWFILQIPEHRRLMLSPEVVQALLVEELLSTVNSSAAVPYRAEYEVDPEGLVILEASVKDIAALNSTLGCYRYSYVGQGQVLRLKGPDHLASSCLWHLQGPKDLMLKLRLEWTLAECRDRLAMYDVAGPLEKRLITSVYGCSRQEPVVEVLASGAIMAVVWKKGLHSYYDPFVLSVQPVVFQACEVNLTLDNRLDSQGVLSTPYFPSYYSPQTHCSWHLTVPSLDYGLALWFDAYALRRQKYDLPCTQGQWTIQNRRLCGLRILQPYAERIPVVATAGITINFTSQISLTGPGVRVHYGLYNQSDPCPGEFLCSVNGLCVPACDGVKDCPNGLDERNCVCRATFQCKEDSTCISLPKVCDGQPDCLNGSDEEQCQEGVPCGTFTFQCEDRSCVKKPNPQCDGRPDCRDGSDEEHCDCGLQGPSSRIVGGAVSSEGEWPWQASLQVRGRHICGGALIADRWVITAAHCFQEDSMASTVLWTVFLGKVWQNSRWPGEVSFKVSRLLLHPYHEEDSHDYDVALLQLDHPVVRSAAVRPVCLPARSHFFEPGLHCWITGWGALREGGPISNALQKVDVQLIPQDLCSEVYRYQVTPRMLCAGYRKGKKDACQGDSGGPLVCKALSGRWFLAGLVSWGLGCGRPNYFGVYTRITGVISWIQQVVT
As to the kind of experiment: Inhibition of recombinant human C-terminal V5-His-tagged matriptase-2 expressed in Drosophila S2 cells using Boc-Gln-Ala-ArgAMC as substrate measured for 1200 mins by fluorescence assay.

Data set [3] concerns the target T2, Suppressor of tumorigenicity 14 protein (Homo sapiens, UniProt Q9Y5Y6).
T2 sequence (Q9Y5Y6 whole entry): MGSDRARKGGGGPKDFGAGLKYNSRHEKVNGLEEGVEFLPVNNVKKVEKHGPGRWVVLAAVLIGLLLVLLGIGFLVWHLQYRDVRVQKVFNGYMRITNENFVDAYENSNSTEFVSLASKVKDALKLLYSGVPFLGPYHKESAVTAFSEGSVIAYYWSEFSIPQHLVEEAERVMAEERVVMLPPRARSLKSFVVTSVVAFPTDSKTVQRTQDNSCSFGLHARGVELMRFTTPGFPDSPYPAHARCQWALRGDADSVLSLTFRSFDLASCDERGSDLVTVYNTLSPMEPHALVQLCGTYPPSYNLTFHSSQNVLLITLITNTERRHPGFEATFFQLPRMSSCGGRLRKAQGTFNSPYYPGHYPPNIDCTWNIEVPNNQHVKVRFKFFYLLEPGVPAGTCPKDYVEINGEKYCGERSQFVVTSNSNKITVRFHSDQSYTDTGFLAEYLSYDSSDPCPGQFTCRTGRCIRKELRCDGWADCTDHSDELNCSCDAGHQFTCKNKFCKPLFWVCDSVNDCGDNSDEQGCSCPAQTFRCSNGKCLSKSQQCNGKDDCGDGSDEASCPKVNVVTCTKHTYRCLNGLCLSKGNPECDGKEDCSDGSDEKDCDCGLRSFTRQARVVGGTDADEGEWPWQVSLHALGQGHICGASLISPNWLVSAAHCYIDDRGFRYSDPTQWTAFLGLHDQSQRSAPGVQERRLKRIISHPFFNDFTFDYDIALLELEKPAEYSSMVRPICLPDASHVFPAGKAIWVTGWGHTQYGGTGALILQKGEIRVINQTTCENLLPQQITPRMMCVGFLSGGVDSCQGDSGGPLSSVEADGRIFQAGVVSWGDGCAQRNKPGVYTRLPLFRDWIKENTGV
Description: Inhibition of recombinant human matriptase (596 to 855 residues) expressed in Escherichia coli using Boc-Gln-Ala-ArgAMC as substrate measured for 1200 mins by fluorescence assay

Turning to `CC(C)[C@H](NC(=O)C(Cc1ccc(O)cc1)NC(=O)[C@@H](N)Cc1ccc(O)cc1)C(=O)N[C@@H](CCCNC(=N)N)C(=O)c1nc2ccccc2s1` (single isomer, unassigned), in data set [1], the remaining at 24 h was determined as 0%. Besides, in the data set listed under Homo sapiens, the Ratio Ki amounted to 12.

Usually Ki stands for a dissociation constant, usually derived from enzyme kinetics or from competition with a known ligand. For `C[C@H](O)[C@H](NC(=O)[C@H](CCc1ccccc1)NC(=O)CCc1ccccc1)C(=O)N[C@@H](CCCNC(=N)N)C(=O)c1nc2ccccc2s1`, the remaining at 24 h in data set [1] is more than 75%. In addition, the Ki stood at 3.1 nM in data set [2] and 200 nM in data set [3]. The Ratio Ki in the data set filed under Homo sapiens was 64.

On to `N=C(N)NCCC[C@H](NC(=O)[C@H](Cc1c[nH]c2ccccc12)NC(=O)C(Cc1ccc(O)cc1)NC(=O)[C@@H](N)Cc1ccc(O)cc1)C(=O)c1nc2ccccc2s1` (single isomer, unassigned), for which the Ki was 3.1 nM in data set [2] and 5.6 nM in data set [3]. Besides, the Ratio Ki in the data set filed under Homo sapiens is 2.

`N=C(N)NCCC[C@H](NC(=O)[C@H](Cc1ccc2ccccc2c1)NC(=O)C(Cc1ccc(O)cc1)NC(=O)[C@@H](N)Cc1ccc(O)cc1)C(=O)c1nc2ccccc2s1` (single isomer, unassigned): the Ki in data set [2] was 5.3 nM.

With `CC[C@@H](C)[C@@H](NC(=O)[C@H](CCc1ccccc1)NC(=O)CCc1ccccc1)C(=O)N[C@@H](CCCNC(=N)N)C(=O)c1nc2ccccc2s1`, the figures for the Ki in data set [2] and in data set [3] were 5 nM and 150 nM, respectively. Further, in the data set listed under Homo sapiens, the Ratio Ki came out at 30.

For the molecule `N=C(N)NCCC[C@H](NC(=O)[C@H](Cc1ccc(O)c(O)c1)NC(=O)C(Cc1ccc(O)cc1)NC(=O)[C@@H](N)Cc1ccc(O)cc1)C(=O)c1nc2ccccc2s1` (single isomer, unassigned), the Ki amounted to 5 nM in data set [2] and 12 nM in data set [3]. Besides, the Ratio Ki in the data set filed under Homo sapiens was determined as 2.

`N=C(N)NCCC[C@H](NC(=O)[C@H](Cc1cscn1)NC(=O)C(Cc1ccc(O)cc1)NC(=O)[C@@H](N)Cc1ccc(O)cc1)C(=O)c1nc2ccccc2s1` (single isomer, unassigned): the Ki in data set [2] stood at 13 nM; in data set [3] it was 20 nM. In the data set filed under Homo sapiens, the Ratio Ki amounted to 2.

As to `CCC[C@H](NC(=O)[C@H](CCc1ccccc1)NC(=O)CCc1ccccc1)C(=O)N[C@@H](CCCNC(=N)N)C(=O)c1nc2ccccc2s1`, the Ki in data set [2] amounted to 2.3 nM; in data set [3], 26 nM. Further, the Ratio Ki in the data set listed under Homo sapiens is 11.

Regarding `CC[C@H](C)[C@@H](NC(=O)[C@H](CCc1ccccc1)NC(=O)CCc1ccccc1)C(=O)N[C@@H](CCCNC(=N)N)C(=O)c1nc2ccccc2s1`, the Ki was found to be 690 nM in data set [2] and 12000 nM in data set [3]. The Ratio Ki in the data set filed under Homo sapiens was 17.

Take `CC(C)C[C@H](NC(=O)[C@H](CCc1ccccc1)NC(=O)CCc1ccccc1)C(=O)N[C@@H](CCCNC(=N)N)C(=O)c1nc2ccccc2s1`: the Ki in data set [2] was 5.2 nM; in data set [3] it was 120 nM. Also, the Ratio Ki in the data set filed under Homo sapiens was found to be 23.

Turning to `CC[C@H](C)[C@H](NC(=O)[C@H](CCc1ccccc1)NC(=O)CCc1ccccc1)C(=O)N[C@@H](CCCNC(=N)N)C(=O)c1nc2ccccc2s1`, the Ki in data set [2] came to 4 nM; in data set [3] it was 230 nM. In addition, the Ratio Ki in the data set listed under Homo sapiens is 58.

Consider `CC(C)CCC(=O)NC(Cc1ccc(O)cc1)C(=O)N[C@H](C(=O)N[C@@H](CCCNC(=N)N)C(=O)c1nc2ccccc2s1)C(C)C` (single isomer, unassigned), for which the Ki was found to be 6 nM in data set [2] and 28 nM in data set [3]. In addition, the Ratio Ki in the data set filed under Homo sapiens worked out at 5.

Consider `N=C(N)NCCC[C@H](NC(=O)[C@H](Cc1c[nH]cn1)NC(=O)C(Cc1ccc(O)cc1)NC(=O)[C@@H](N)Cc1ccc(O)cc1)C(=O)c1nc2ccccc2s1` (single isomer, unassigned), for which the Ki in data set [2] amounted to 56 nM; in data set [3], 48 nM. For the same molecule, the Ratio Ki in the data set listed under Homo sapiens was determined as 0.9.

Take `CC(C)[C@H](NC(=O)[C@H](Cc1ccccc1)NC(=O)[C@@H](N)Cc1ccc(O)cc1)C(=O)N[C@@H](CCCNC(=N)N)C(=O)c1nc2ccccc2s1`: the values for the Ki in data set [2] and in data set [3] were 9 nM and 63 nM, respectively. The Ratio Ki in the data set listed under Homo sapiens was determined as 7.

Regarding `N=C(N)NCCC[C@H](NC(=O)[C@H](Cc1cccs1)NC(=O)C(Cc1ccc(O)cc1)NC(=O)[C@@H](N)Cc1ccc(O)cc1)C(=O)c1nc2ccccc2s1` (single isomer, unassigned), the Ki is 6 nM in data set [2] and 19 nM in data set [3]. Also, in the data set filed under Homo sapiens, the Ratio Ki worked out at 3.

Turning to `CC(C)[C@H](NC(=O)[C@H](Cc1cccc(Cl)c1)NC(=O)[C@@H](N)Cc1ccc(O)cc1)C(=O)N[C@@H](CCCNC(=N)N)C(=O)c1nc2ccccc2s1`, the inhibitory constant (Ki) amounted to 5 nM in data set [2] and 34 nM in data set [3]. The Ratio Ki in the data set listed under Homo sapiens was 7.

Take `N=C(N)NCCC[C@H](NC(=O)[C@H](Cc1ccc(O)cc1)NC(=O)C(Cc1ccc(O)cc1)NC(=O)[C@@H](N)Cc1ccc(O)cc1)C(=O)c1nc2ccccc2s1` (single isomer, unassigned): the Ki was found to be 1.1 nM in data set [2] and 7 nM in data set [3]. For the same molecule, the Ratio Ki in the data set listed under Homo sapiens is 6.

Take `N=C(N)NCCC[C@H](NC(=O)[C@@H](NC(=O)C(Cc1ccc(O)cc1)NC(=O)CCc1ccccc1)C(c1ccccc1)c1ccccc1)C(=O)c1nc2ccccc2s1` (single isomer, unassigned): the inhibitory constant (Ki) in data set [2] stood at 340 nM; in data set [3], 1380 nM. For the same molecule, in the data set listed under Homo sapiens, the Ratio Ki came to 4.

Consider `CC(C)[C@H](NC(=O)C(Cc1ccc(O)cc1)NC(=O)CCc1ccccc1)C(=O)N[C@@H](CCCNC(=N)N)C(=O)c1nc2ccccc2s1` (single isomer, unassigned), for which the inhibitory constant (Ki) in data set [2] turned out to be 1.74 nM; in data set [3], 43 nM. Besides, the Ratio Ki in the data set filed under Homo sapiens is 25.

On to `CC(C)[C@H](NC(=O)[C@H](Cc1ccc(O)cc1)NC(=O)CC12CC3CC(CC(C3)C1)C2)C(=O)N[C@@H](CCCNC(=N)N)C(=O)c1nc2ccccc2s1`, for which the Ki in data set [2] is 6 nM; in data set [3], 39 nM. Besides, in the data set filed under Homo sapiens, the Ratio Ki is 6.

On to `CC(C)(C)[C@H](NC(=O)[C@H](CCc1ccccc1)NC(=O)CCc1ccccc1)C(=O)N[C@@H](CCCNC(=N)N)C(=O)c1nc2ccccc2s1`, for which the Ki in data set [2] came to 560 nM; in data set [3] it was 15000 nM. Further, the Ratio Ki in the data set filed under Homo sapiens is 27.

With `CC[C@@H](C)[C@H](NC(=O)[C@H](CCc1ccccc1)NC(=O)CCc1ccccc1)C(=O)N[C@@H](CCCNC(=N)N)C(=O)c1nc2ccccc2s1`, the Ki turned out to be 2.6 nM in data set [2] and 51 nM in data set [3]. Also, the Ratio Ki in the data set filed under Homo sapiens was 20.

As to `CC(C)[C@H](NC(=O)[C@H](Cc1ccc(OCc2ccccc2)cc1)NC(=O)CCc1ccccc1)C(=O)N[C@@H](CCCNC(=N)N)C(=O)c1nc2ccccc2s1`, the figures for the Ki in data set [2] and in data set [3] were 3.5 nM and 71 nM, respectively. Further, the Ratio Ki in the data set listed under Homo sapiens turned out to be 20.

Consider `C[C@@H](O)[C@H](NC(=O)[C@H](CCc1ccccc1)NC(=O)CCc1ccccc1)C(=O)N[C@@H](CCCNC(=N)N)C(=O)c1nc2ccccc2s1`, for which the Ki in data set [2] was 5.3 nM; in data set [3] it was 120 nM. Further, the Ratio Ki in the data set listed under Homo sapiens is 23.

`CC(C)[C@@H](NC(=O)[C@H](CCc1ccccc1)NC(=O)CCc1ccccc1)C(=O)N[C@@H](CCCNC(=N)N)C(=O)c1nc2ccccc2s1`: the Ki in data set [2] was 7 nM; in data set [3] it was 240 nM. The Ratio Ki in the data set listed under Homo sapiens was found to be 34.

Take `CC(C)[C@H](NC(=O)[C@H](CCc1ccccc1)NC(=O)CCc1ccccc1)C(=O)N[C@@H](CCCNC(=N)N)C(=O)c1nc2ccccc2s1`: the Ki in data set [2] came to 2.1 nM; in data set [3], 65 nM. In the data set listed under Homo sapiens, the Ratio Ki was 31.

Source of the values: ChEMBL document CHEMBL4007428, “Modulating the selectivity of matriptase-2 inhibitors with unnatural amino acids” (Eur J Med Chem, 2017).
